According to US20260325485A1, “COMPOSITIONS AND METHODS FOR TREATING PANCREATITIS” (The United States Government as represented by the …, priority 2022, published 2026):

Columns and labels:
mouse acinar cells = test: Total cholesterol content of mouse acinar cells (ex vivo pancreatitis models or cholesterol chelator); format: cell-based; parameters: total cholesterol in acinar cells, physiologic doses: dose or concentration left out as unconfirmed; details: for cholesterol overload, mouse acinar cells: ex-vivo pancreatitis, 1 h, 100 nM CCK, 1 mM carbachol or 500 μM TLCS
Description: (§1) FIGS. 8A-8M show derangement of cholesterol metabolism in experimental pancreatitis. Characteristics of cholesterol metabolism were measured, as detailed in FIGS. 4A-4R, in pancreas of WT mice subjected to pancreatitis induced with cerulein (CER-AP), L-arginine (Arg-AP), or CDE diet (CDE-AP) (A, B, and E-G); ex vivo pancreatitis induced in WT mouse (C and I-M) or human acinar cells (D) with 100 nM CCK (CCK-AP) or 1 mM carbachol; and isolated pancreatic mitochondria (H). (B) Cholesterol ester (CE) heatmap; each column represents an individual mouse. (F) IB analysis of the indicated proteins. (G) LAL activity was measured by a fluorogenic assay (n=6 mice per condition). (H) Cholesterol content was measured by enzymatic assay. (I-M) Filipin colocalization with indicated proteins was quantified as detailed in FIGS. 2A-2L. Each symbol in A, C-E, and H represents an individual mouse, or cell or mitochondria preparation (n=3-15 per condition). Each symbol in J, K, and M corresponds to 20-30 cells in a different field (n=10-20 fields from 3 cell preparations per condition). Values are mean±SEM. *P<0.05, **P<0.01, ***P<0.001 vs. the same parameter in control/untreated pancreas, acinar cells or isolated mitochondria. Significance was determined by 2-tailed Student's t test (B, E, H, J, K, and M) or 1-way ANOVA followed by Tukey's multiple comparison test (A, C, and D). Scale bars: 10 μm.
(§2) Parameters of cholesterol metabolism were measured in (A, B, E, F) pancreas of mice subjected to pancreatitis induced with cerulean (CER-AP), L-arginine (Arg-AP), or combination of EtOH+palmitoleic acid (EtOH+POA); and (C) ex-vivo models on mouse and human acinar cells treated for 1 h with 100 nM CCK, […] or 500 μM TLCS. In (A), each column in CE heatmap represents an individual mouse. (B, C) Total cholesterol content was measured with cholesterol assay kit (Abcam, ab65390). […] Each symbol corresponds to 20-30 cells in each of 8 high-expression (qPCR) of proteins regulating cholesterol synthesis (4 mice/group). (B-D) Each symbol represents an individual animal or cell preparation. (A-D, F) Values are mean±SE (*p<0.05, **p<0.01, ***p<0.001 vs saline or control). Signficance was determined by 2-tailed student's t test.
(§3) Ex vivo pancreatitis models were performed on mouse and human acinar cells, and human pancreas slices by incubation with supramaximal CCK (100 nM) or carbachol (1 mM), as described previously (80, 81).
(§4) Total cholesterol content was measured with Cholesterol Assay kit per manufacturer's instructions. Samples of mouse pancreas and liver, cell pellet homogenates, subcellular fractions, isolated mitochondria, and serum were diluted in the reaction buffer containing cholesterol probe and incubated at 37° C. for 1 h in the dark. To measure total cholesterol, the samples were subjected to digestion with cholesterol esterase. To measure non-esterified cholesterol, the esterase was omitted from the assay.
Fluorescence intensity (for cholesterol) and absorbance (for TAG) were measured in a Tecan microplate reader. Each measurement was in duplicate, and the values were normalized per mg total protein in the sample.

human acinar cells = test: Total cholesterol content of human acinar cells (ex vivo pancreatitis models); format: cell-based; details: for cholesterol overload, human acinar cells: ex-vivo pancreatitis, 1 h, 100 nM CCK, 1 mM carbachol or 500 μM TLCS
Description: as §1, §2, §3
Human pancreas slices were obtained as in (12), from portions of live normal human pancreata from pre-terminal donors that were not used for transplantation and diverted to research (provided by Trillium Gift of Life Network, Toronto, Ontario, year 2020) or from normal portions of pancreatic cancer operations. Pancreas was cut into ~3×3×3 mm pieces and embedded with 37° C. low melting 3.8% agarose gel in extracellular solution containing (mM): 125 NaCl, 2.5 KCl, 1 MgCl2, 2 CaCl2, 1.25 NaH2PO4, 26 NaHCO3, 2 sodium pyruvate, 0.25 ascorbic acid, 3 myo-inositol, 6 lactic acid, and 7 glucose, and placed on ice to solidify the gel. The gelled tissue blocks were sliced with Vibratome into 120 μm-thick slices; slices were washed with the same extracellular solution, placed in 199 medium containing 0.1 mg/mL soybean trypsin inhibitor, and treated with CCK-8 (CCK) or carbachol for ex-vivo pancreatitis.
Total cholesterol content was measured with Cholesterol Assay kit per manufacturer's instructions. […]

NPC1 [1] = molecular target: T1, NPC1 (Mus musculus, UniProt O35604); test: Effects of U18666A with LDL on WT acinar cells; format: cell-based; details: LDL 30 μg/mL + 10 μM U18666A, 16 hours
T1 sequence (O35604 23-1277): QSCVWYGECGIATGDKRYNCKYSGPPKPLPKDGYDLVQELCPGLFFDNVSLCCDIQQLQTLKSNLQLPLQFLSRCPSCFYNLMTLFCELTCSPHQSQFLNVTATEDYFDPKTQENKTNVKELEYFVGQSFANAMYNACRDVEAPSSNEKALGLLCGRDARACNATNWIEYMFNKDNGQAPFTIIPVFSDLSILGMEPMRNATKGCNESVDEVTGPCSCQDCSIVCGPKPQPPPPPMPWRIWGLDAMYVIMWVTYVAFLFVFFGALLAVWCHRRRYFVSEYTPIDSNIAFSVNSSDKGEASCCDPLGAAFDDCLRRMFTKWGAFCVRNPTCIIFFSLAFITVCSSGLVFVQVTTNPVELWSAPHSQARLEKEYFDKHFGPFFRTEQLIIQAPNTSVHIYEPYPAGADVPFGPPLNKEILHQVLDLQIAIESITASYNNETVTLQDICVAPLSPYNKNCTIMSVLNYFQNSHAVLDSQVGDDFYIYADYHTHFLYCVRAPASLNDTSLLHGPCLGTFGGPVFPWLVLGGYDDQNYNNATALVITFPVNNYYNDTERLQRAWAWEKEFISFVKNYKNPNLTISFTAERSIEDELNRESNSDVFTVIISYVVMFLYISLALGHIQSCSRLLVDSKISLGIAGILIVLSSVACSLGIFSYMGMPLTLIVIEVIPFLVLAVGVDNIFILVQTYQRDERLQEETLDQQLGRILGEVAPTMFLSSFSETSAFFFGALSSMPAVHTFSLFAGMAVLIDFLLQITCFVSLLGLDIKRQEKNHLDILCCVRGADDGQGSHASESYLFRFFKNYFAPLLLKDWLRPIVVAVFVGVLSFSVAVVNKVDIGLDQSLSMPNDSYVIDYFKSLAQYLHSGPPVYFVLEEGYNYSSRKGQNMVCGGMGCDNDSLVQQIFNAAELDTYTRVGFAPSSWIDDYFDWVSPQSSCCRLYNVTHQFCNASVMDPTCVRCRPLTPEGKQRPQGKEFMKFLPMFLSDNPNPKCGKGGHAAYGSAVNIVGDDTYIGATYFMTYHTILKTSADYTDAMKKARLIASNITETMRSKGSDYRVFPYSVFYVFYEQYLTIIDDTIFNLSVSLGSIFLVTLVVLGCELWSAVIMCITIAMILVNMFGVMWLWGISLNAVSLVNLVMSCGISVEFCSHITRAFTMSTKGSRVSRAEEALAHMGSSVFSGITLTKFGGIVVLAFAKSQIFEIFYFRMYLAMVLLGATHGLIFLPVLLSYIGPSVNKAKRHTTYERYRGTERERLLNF
Description: (§5) FIGS. 10A-10N show deranged cholesterol metabolism causes acinar cell damage, while its normalization ameliorates experimental pancreatitis. (A-D) Cholesterol content and trypsin activity were measured (per mg protein) in WT mouse acinar cells incubated for 1 hour without and with methyl-β-cyclodextrin (MCD; 10 mM) or cholesterol-loaded MCD (MCD-Chol; 200 μg/mL), in the presence or absence of 100 nM CCK. Values are expressed relative to those in cells without MCD/MCD-Chol. (E-J) WT mice received daily i.p. injections of the LXR agonist T0901317 (T09), simvastatin (Sim; 20 mg/kg each), or vehicle. On day 4, mice were subjected to CER-AP and pancreata collected for analyses (see also FIG. 20). Cholesterol content (E), trypsin activity (F), and pancreas histopathology (H&E staining; G) were measured. (H, I, L, and N) IB analysis of markers/mediators of autophagy (LC3, p62), ER stress (CHOP, GRP-78), and mitophagy (Parkin). Ub, ubiquitylated proteins. (J) Mitochondrial fragmentation was assessed by immunostaining for Tom20, as detailed in FIG. 7G. (K and L) Mouse acinar cells were treated for 16 hours with LDL (30 μg/mL) or the combination of LDL and 10 μM U18666A. (M and N) Mice received injections of U18666A as detailed in FIG. 9B. Pancreas histopathology (H&E staining; M) and levels of autophagy markers/mediators (N) were measured. Each symbol in A-F and I represents an individual mouse or cell preparation. Values are mean±SEM from 3 to 7 mice or cell preparations per condition. ^§ P<0.05, ^§§ P<0.01 vs. control cells (without MCD/MCD-Chol). ***P<0.001 vs. saline-treated mice. ^#P<0.05, ^##P<0.01, ^###P<0.001 vs. CER-AP alone (no inhibitors). Significance was determined by 2-tailed Student's t test (A-D) or 1-way ANOVA followed by Tukey's multiple comparison test (E, F, and I). Scale bars: 10 μm.
To examine the effect of disrupted cholesterol turnover, WT acinar cells were incubated with LDL-cholesterol in the presence and absence of the NPC1 inhibitor U18666A. U18666A caused cholesterol accumulation in LE/Ly (filipin staining; FIG. 10K), resulting in impaired autophagy (manifested by concomitant accumulation of LC3-II and ubiquitylated proteins) and increases in CHOP and Parkin (FIG. 10L).
Immunoblots were developed using enhanced chemiluminescence detection kit (Pierce), and band intensities were quantified by densitometry using FluorChem HD2 imaging system (Alpha Innotech/ProteinSimple).
Staining for neutral lipids and free cholesterol was performed by incubation of fixed-frozen tissue sections or fixed cells with, respectively, 2 μg/ml BODIPY493/503 for 45 min or 100 µg/ml filipin for 2 h at room temperature. For double labeling, BODIPY493/503 or filipin were applied after fixed-frozen tissue or cell sections incubated with primary and secondary antibodies.

NPC1 [2] = molecular target: T1, NPC1; test: Effects of NPC1 inhibitor U18666A on WT mouse pancreas; format: in vivo; details: 15 days
Description: FIGS. 9A-9E show cerulein pancreatitis decreases pancreatic levels of GNPTAB and mediators of cholesterol trafficking through LE/Ly. (A, D, and E) IB analysis of the indicated proteins in pancreas of WT mice subjected to CER-AP and in Gnptab^−/− mice. NS, nonspecific band. (B and C) Cholesterol content was measured in pancreas of (B) WT mice that received daily i.p. injections of the NPC1 inhibitor U18666A (10 mg/kg) or vehicle for 15 days and (C) Lamp2^−/− mice. Each symbol in B, C, and E represents an individual mouse. Values are mean±SEM from 3 to 5 mice per condition. ***P<0.001 vs. the same parameter in WT control/untreated or saline-treated mice. Significance was determined by 2-tailed Student's t test (B and C) or 1-way ANOVA followed by Tukey's multiple comparison test (E).
as §5
viii. In Vivo Treatments of Mice
12-week-old WT mice were subjected for 4 consecutive days to daily i.p. injections of 20 mg/kg simvastatin (8,9) or 20 mg/kg T0901317 (10); or 10 mg/kg U18666A for 15 days (11). Control mice received vehicle injections. Some of the simvastatin- and T0901317-treated mice were subjected to CER-AP on day 4, as indicated in corresponding figures.
as §4
Pancreatitis responses were measured as previously described (1-7). Serum amylase and lipase were measured in a Hitachi 707 analyzer. Acinar cell vacuolization and necrosis were quantified on H&E stained pancreatic tissue sections; at least 1000 acinar cells/mouse were analyzed in several high-power fields. ATP was measured in tissue homogenates using bioluminescence assay (3-5).

[3] = supramaximal (100 nM) CCK-8 or carbachol, ex vivo AP

Row | CHOP, acinar cells (NPC1 [1]) | LC3-II (impaired autophagy), acinar cells (NPC1 [1]) | Parkin, acinar cells (NPC1 [1]) | cholesterol in LE/Ly (filipin staining) (NPC1 [1]) | ubiquitylated proteins (impaired autophagy), acinar cells (NPC1 [1]) | cholesterol content in WT mouse pancreas, U18666A (NPC1 [2]; 10 mg/kg daily i.p.) | LC3-II in mouse pancreas (NPC1 [2]; 10 mg/kg i.p. daily) | acinar cell vacuolization, mice (NPC1 [2]; 10 mg/kg i.p. daily) | inflammation, mouse pancreas (NPC1 [2]; 10 mg/kg i.p. daily) | p62 in mouse pancreas (NPC1 [2]; 10 mg/kg i.p. daily) | ubiquitylated proteins in mouse pancreas (NPC1 [2]; 10 mg/kg i.p. daily) | SMILES | cholesterol overload, mouse acinar cells (mouse acinar cells) | cholesterol overload, human acinar cells (human acinar cells) | necrosis, mouse pancreas (NPC1 [2]; 10 mg/kg i.p. daily, up to ~) [%] | total cholesterol in acinar cells, physiologic doses (mouse acinar cells; physiologic doses of CCK or carbachol) | cholesterol content, mouse acinar cells, supramaximal stimulation (mouse acinar cells; [3]) | cholesterol content, human acinar cells, supramaximal stimulation (human acinar cells; [3])
1 | – | – | – | – | – | – | – | – | – | – | – | C[C@H](CCC(=O)NCCS(=O)(=O)O)[C@H]1CC[C@H]2[C@@H]3CC[C@@H]4C[C@H](OS(=O)(=O)O)CC[C@]4(C)[C@H]3CC[C@]12C [TLCS] | prominent | prominent | – | – | – | –
2 | increases | accumulation | increases | accumulation | accumulation | elevated | accumulation | increased | inflammation | accumulation | accumulation | CCN(CC)CCO[C@H]1CC[C@@]2(C)C(=CC[C@@H]3[C@@H]2CC[C@]2(C)C(=O)CC[C@@H]32)C1 [U18666A, 3-beta-[2-(diethylamino)ethoxy] androst-5-en-17-one] | – | – | ≤ 20 | – | – | –
3 | – | – | – | – | – | – | – | – | – | – | – | C[N+](C)(C)CCOC(N)=O [carbachol] | prominent | prominent | – | did not alter | increased | increased
